Assay results reported in PubChem BioAssay (NCI).
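Where inhibition never reached the appropriate level, the endpoint shown equals the highest concentration tested. Otherwise, values were interpolated linearly from a five-concentration, 48-hour dose response in 96-well plates. TGI is the concentration that stops growth completely.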

Experiments:
Assay in all cases: DTP human tumour cell line panel, 48 h
HOP-18 NSCLC = system: HOP-18 NSCLC
HOP-62 NSCLC = system: HOP-62 NSCLC
HS 578T breast = system: HS 578T breast
KM20L2 colon = system: KM20L2 colon
M19-MEL melanoma = system: M19-MEL melanoma
MALME-3M melanoma = system: MALME-3M melanoma
NCI-H522 lung = system: NCI-H522 lung
OVCAR-8 ovarian = system: OVCAR-8 ovarian
SNB-78 CNS = system: SNB-78 CNS
T-47D breast = system: T-47D breast

Compound | TGI (HOP-18 NSCLC) [µM] | TGI (HOP-62 NSCLC) [µM] | TGI (HS 578T breast) [µM] | TGI (KM20L2 colon) [µM] | TGI (M19-MEL melanoma) [µM] | TGI (MALME-3M melanoma) [µM] | TGI (NCI-H522 lung) [µM] | TGI (OVCAR-8 ovarian) [µM] | TGI (SNB-78 CNS) [µM] | TGI (T-47D breast) [µM]
COc1ccc(S(=O)(=O)N/N=C/C(=O)O)cc1 | > 1250 | 1130 | 1040 | > 1250 | > 1250 | > 1250 | 644 | 1100 | > 1250 | > 1250
O=c1c2ccccc2nc(-c2ccccc2)n1NCC1(O)OCC(O)C(O)C1O (stereo not drawn) | > 100 | > 100 |  | > 100 | > 100 | > 100 | > 100 | > 100 | > 100 | 
